Reference: patent US20230159509A1 (Amathus Therapeutics, Inc., priority 2020, published 2023)

Molecular target: T1, TRAP1 enzyme (Homo sapiens, UniProt Q12931)
T1 construct: 150 nM Trap1 enzyme was incubated with various concentrations of the test compound
T1 sequence (Q12931 60-704): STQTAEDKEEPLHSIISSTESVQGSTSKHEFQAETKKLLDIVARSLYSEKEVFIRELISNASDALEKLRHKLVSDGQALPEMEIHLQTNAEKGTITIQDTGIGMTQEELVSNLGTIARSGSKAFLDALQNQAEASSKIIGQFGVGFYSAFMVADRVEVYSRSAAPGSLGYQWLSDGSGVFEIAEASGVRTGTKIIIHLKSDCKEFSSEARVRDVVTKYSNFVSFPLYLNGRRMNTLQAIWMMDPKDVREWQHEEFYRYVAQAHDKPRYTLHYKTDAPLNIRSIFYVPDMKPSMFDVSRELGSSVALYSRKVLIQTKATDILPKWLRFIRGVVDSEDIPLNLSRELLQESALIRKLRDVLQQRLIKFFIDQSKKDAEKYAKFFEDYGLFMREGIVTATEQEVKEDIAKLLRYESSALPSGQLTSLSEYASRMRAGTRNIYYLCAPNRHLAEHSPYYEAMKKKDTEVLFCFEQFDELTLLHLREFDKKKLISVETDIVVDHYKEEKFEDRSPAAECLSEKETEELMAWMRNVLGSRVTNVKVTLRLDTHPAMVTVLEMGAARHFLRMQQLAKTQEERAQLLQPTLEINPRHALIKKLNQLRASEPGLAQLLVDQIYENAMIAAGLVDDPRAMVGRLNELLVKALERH
Test: ADP Glo assay of TRAP1 ATPase activity
Type: biochemical
Settings: 1 h; compound concentration 50 μM; read-out: ADP-Glo Percent Activation at 50 μM
In short: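 Compound (0.79–100 μM) was preincubated 30 min at 37° C with 150 nM TRAP1 in 25 mM Pipes pH 7.5, 40 mM KCl, 0.05 mM MgCl2. Reaction started with 20 μM ATP, 60 min at 37° C. ADP measured by luminescence against a standard curve; activation fitted sigmoidally for EC50 and Emax.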

| activation at 50 µM [%] | Compound |
| --- | --- |
| 181 to 352 | COc1ncc(NC(=O)c2cc(C(C)C)no2)cc1S(=O)(=O)Nc1c(C)cccc1C [compound 2555] |
| 151 to 180 | COc1ccc(C(=O)Nc2cnc(OC)c(S(=O)(=O)Nc3c(C)cccc3C)c2)cn1 [compound 2556] |
| 151 to 180 | COc1ncc(NC(=O)c2cnn3c2CCC3)cc1S(=O)(=O)Nc1c(C)cccc1C [compound 2557] |
| 151 to 180 | COc1ncc(NC(=O)c2nc3ccccn3n2)cc1S(=O)(=O)Nc1c(C)cccc1C [compound 2558] |
| 120 to 150 | COc1ncc(NC(=O)c2ccnn2C)cc1S(=O)(=O)Nc1c(C)cccc1C [compound 2559] |
| 181 to 352 | COc1ncc(NC(=O)c2ccn(C3CC3)n2)cc1S(=O)(=O)Nc1c(C)cccc1C [compound 2562] |
| 120 to 150 | COc1ncc(NC(=O)c2cc(C)n(C)n2)cc1S(=O)(=O)Nc1c(C)cccc1C [compound 2564] |
| 120 to 150 | COc1ncc(NC(=O)c2cnsn2)cc1S(=O)(=O)Nc1c(C)cccc1C [compound 2569] |
| 151 to 180 | COc1ncc(NC(=O)c2ncn(C)c2C)cc1S(=O)(=O)Nc1c(C)cccc1C [compound 2571] |
| 151 to 180 | COc1ncc(NC(=O)c2cc3n(n2)CCCC3)cc1S(=O)(=O)Nc1c(C)cccc1C [compound 2573] |
| 151 to 180 | COc1cc(C(=O)Nc2cnc(OC)c(S(=O)(=O)Nc3c(C)cccc3C)c2)ccn1 [compound 2575] |
| 181 to 352 | COc1ncc(NC(=O)c2ccc3c(c2)OCCN3C)cc1S(=O)(=O)Nc1c(C)cccc1C [compound 2576] |
| 120 to 150 | COc1ncc(NC(=O)c2c(C)nn(C)c2Cl)cc1S(=O)(=O)Nc1c(C)cccc1C [compound 2582] |
| 181 to 352 | COc1cccc(C(=O)Nc2cnc(OC)c(S(=O)(=O)Nc3c(C)cccc3C)c2)n1 [compound 2583] |
| 120 to 150 | COc1ncc(NC(=O)c2ccn(C)n2)cc1S(=O)(=O)Nc1c(C)cccc1C [compound 2586] |

The next lines start with the compound.

| Compound | activation at 50 µM [%] |
| --- | --- |
| COc1ncc(NC(=O)c2ccc(S(=O)(=O)NC(C)(C)C)cc2)cc1S(=O)(=O)Nc1c(C)cccc1C [compound 2561] | 181 to 352 |
| COc1ncc(NC(=O)c2ccccc2CN(C)C)cc1S(=O)(=O)Nc1c(C)cccc1C [compound 2566] | 120 to 150 |
| COc1ncc(NC(=O)c2ccn3ncnc3c2)cc1S(=O)(=O)Nc1c(C)cccc1C [compound 2567] | 120 to 150 |
| COc1ncc(NC(=O)c2ccc(OC3COC3)cc2)cc1S(=O)(=O)Nc1c(C)cccc1C [compound 2568] | 181 to 352 |
| COc1ncc(NC(=O)c2ccc(CN3CCOCC3)cc2)cc1S(=O)(=O)Nc1c(C)cccc1C [compound 2570] | 181 to 352 |
| COc1ncc(NC(=O)c2cccc(CN3CCOCC3)c2)cc1S(=O)(=O)Nc1c(C)cccc1C [compound 2572] | 181 to 352 |
| COc1ncc(NC(=O)c2cccc3c2CCCC3)cc1S(=O)(=O)Nc1c(C)cccc1C [compound 2574] | 151 to 180 |
| COc1ncc(NC(=O)c2cnn3c2OCCC3)cc1S(=O)(=O)Nc1c(C)cccc1C [compound 2577] | 120 to 150 |
| COc1ncc(NC(=O)c2ccc(N3CCN(C)CC3)cc2)cc1S(=O)(=O)Nc1c(C)cccc1C [compound 2578] | 181 to 352 |
| COc1ncc(NC(=O)c2ccc(S(C)(=O)=O)cc2)cc1S(=O)(=O)Nc1c(C)cccc1C [compound 2580] | 120 to 150 |
| COc1ncc(NC(=O)c2ccccc2[S@+](C)[O-])cc1S(=O)(=O)Nc1c(C)cccc1C [compound 2581] | 151 to 180 |
| COc1ncc(NC(=O)c2cccc(N3CCOCC3)n2)cc1S(=O)(=O)Nc1c(C)cccc1C [compound 2584] | 181 to 352 |
| COc1ncc(NC(=O)c2cnn(C3CCOCC3)c2)cc1S(=O)(=O)Nc1c(C)cccc1C [compound 2587] | 120 to 150 |
| COc1ncc(NC(=O)c2ccc(N3CCOCC3)cc2F)cc1S(=O)(=O)Nc1c(C)cccc1C [compound 2590] | 181 to 352 |
